# Assay results as given in US20090215857A1 (Pfizer Products Inc., priority 2005, published 2009).
# Structures can show the parent of a compound that is named as a salt.
# Target: T1, neuronal α-BGTX-insensitive central nicotinic receptor (Rattus norvegicus, UniProt P09483+P12390)
# T1 construct: Membrane homogenates of cerebral cortex (800 μg protein) are incubated; from tissue; host or cells: rat cerebral cortex membrane homogenates
# Experiment: [3H]cytisine radioligand binding assay, rat cerebral cortex
# Conditions: 10 μM compound; 1.5 nM [3H]cytisine; rat cerebral cortex membrane homogenates; read-out: Percent inhibition at 10 μM of compound (control radioligand specific binding)
# Method: Several compounds were evaluated for their affinity for the neuronal α-BGTX-insensitive central nicotinic receptor in the rat cerebral cortex determined in a radioligand binding assay.
# Experimental protocol Membrane homogenates of cerebral cortex (800 μg protein) are incubated for 75 min at 4° C. with 1.5 nM [^3H]cytisine in the absence or presence of the test compound (10 μM in a buffer containing 50 mM Tris-HCl (pH 7.4), 120 mM NaCl, 5 mM KCl, 1 mM MgCl2 and 2 mM CaCl2.
# Nonspecific binding is determined in the presence of 10 μM nicotine.
# Following incubation, the samples are filtered rapidly under vacuum through glass fiber filters (Filtermat B, Wallac) presoaked with 0.3% PEI (polyethyleneimine) and rinsed several times with ice-cold 50 mM Tris-HCl using a 48-sample cell harvester (Mach II, Tomtec). The filters are dried then counted for radioactivity in a scintillation counter (Betaplate 1204, Wallac) using a solid scintillator (Meltilex B/HS, Wallac).
# The results are expressed as a percent inhibition of the control radioligand specific binding.
# The standard reference compound is nicotine, which is tested in each experiment at several concentrations to obtain a competition curve from which its IC50 is calculated.
# T1 sequence (P09483 31-630): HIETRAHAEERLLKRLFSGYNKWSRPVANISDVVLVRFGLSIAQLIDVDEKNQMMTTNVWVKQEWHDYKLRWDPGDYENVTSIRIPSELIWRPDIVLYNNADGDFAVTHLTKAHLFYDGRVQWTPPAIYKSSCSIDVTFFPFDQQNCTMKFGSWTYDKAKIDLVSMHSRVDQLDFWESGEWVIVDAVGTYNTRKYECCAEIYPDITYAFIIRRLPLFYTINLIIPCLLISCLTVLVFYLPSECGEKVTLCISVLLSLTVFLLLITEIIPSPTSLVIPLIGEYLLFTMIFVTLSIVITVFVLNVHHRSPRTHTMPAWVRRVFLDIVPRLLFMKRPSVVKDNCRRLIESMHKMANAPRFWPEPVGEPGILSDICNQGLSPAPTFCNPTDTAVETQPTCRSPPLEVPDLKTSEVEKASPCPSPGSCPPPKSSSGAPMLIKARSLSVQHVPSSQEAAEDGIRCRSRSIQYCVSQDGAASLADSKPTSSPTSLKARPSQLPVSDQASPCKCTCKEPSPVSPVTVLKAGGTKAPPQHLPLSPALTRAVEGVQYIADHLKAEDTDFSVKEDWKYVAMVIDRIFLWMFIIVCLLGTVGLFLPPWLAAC
# T1 sequence (P12390 25-500): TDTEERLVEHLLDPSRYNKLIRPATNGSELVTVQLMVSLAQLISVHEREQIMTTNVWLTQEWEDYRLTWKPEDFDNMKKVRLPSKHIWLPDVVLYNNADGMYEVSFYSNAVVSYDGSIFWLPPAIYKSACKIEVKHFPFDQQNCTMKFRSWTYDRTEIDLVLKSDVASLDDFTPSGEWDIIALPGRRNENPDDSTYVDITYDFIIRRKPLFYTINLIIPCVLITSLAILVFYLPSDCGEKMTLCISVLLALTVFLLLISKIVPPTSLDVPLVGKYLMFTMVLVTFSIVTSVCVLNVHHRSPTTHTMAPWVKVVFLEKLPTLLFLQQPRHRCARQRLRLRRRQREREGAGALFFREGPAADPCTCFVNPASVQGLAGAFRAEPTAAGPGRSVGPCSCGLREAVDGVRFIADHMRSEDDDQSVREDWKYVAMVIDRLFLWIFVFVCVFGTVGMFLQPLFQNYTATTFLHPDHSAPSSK
row,Compound,inhibition at 10 µM
1,"Fc1cc(F)cc(-c2ccccc2CO[C@H]2CCNC2)c1 [Example A-17, (S)-3-(3′,5′-Difluoro-biphenyl-2-ylmethoxy)-pyrrolidine hydrochloride]",≤ 21%
2,"FC(F)(F)c1cccc(-c2ccccc2CO[C@H]2CCNC2)c1 [Example A-18, (S)-3-(3′-Trifluoromethyl-biphenyl-2-ylmethoxy)-pyrrolidine hydrochloride]",≤ 21%

# Tested on: capsaicin-induced mechanical allodynia
# Experiment: rat model of capsaicin-induced mechanical allodynia
# Assay type: in vivo
# Conditions: male Sprague-Dawley rats; 10 mg/kg subcutaneously; PWT 1 hour after single dose; mean of eight animals, normalized for vehicle
# Method: Compounds of the present invention may be assayed for their ability to alleviate capsaicin-induced mechanical allodynia in a rat (e.g., Sluka (2002) J of Neuroscience, 22(13): 5687-5693). For example, a rat model of capsaicin-induced mechanical allodynia was carried out as follows:
# On day 0, male Sprague-Dawley rats (˜150 g) in the dark cycle were placed in suspended wire-bottom cages and allowed to acclimate for 0.5 hour in a darkened, quiet room. The day 0 paw withdrawal threshold (PWT) was determined on the left hind paw by Von Frey hair assessment using the Dixon up and down method. After assessment, the plantar muscle of the right hind paw was injected with 100 μl capsaicin (0.25% (w/v) in 10% ethanol, 10% Tween 80, in sterile saline). On day 6 the PWT of the left hind paw (contralateral from injection site) was determined for each animal. Animals from the day 6 prereads with PWT ≦11.7 g were considered allodynic responders and were regrouped so that each cage had similar mean PWT values. On day 7, responders were dosed subcutaneously with 10 mg compound/kg body weight, or with vehicle alone. The vehicle was phosphate buffered saline containing 2% Cremophor® EL (BASF). The contralateral PWT values were determined at 1 hour after the single dose, with the investigator blinded to the dosing scheme.
# For each animal, the day 6 PWT value was subtracted from the 1 hour PWT value to give a delta PWT value that represents the change in PWT due to the 1 hour drug treatment. In addition, the day 6 PWT was subtracted from the day 0 PWT to give the baseline window of allodynia present in each animal.
# The mean percent Inhibition of allodynia values (for eight animals assayed for each compound)+/−the standard error of the mean (SEM) are shown in Table 15.
row,Compound,% INHIBITION +/− SEM (inhibition of allodynia)
1,"Fc1ccc(-c2ccccc2CO[C@H]2CCNC2)c(F)c1 [Example A-1, (S)-3-(2′,4′-Difluoro-biphenyl-2-ylmethoxy)-pyrrolidine fumarate]",40.90 +/− 10.2%
2,"Fc1ccc(-c2ccc(F)cc2CO[C@H]2CCNC2)c(F)c1.O=C(O)/C=C/C(=O)O [Example A-3, (S)-3-(4,2′,4′-Trifluoro-biphenyl-2-ylmethoxy)-pyrrolidine fumarate]",17.40 +/− 9.9%
3,"Cl.Fc1ccc(-c2cccc(F)c2F)c(CO[C@H]2CCNC2)c1 [Example A-4, (S)-3-(4,2′,3′-Trifluoro-biphenyl-2-ylmethoxy)-pyrrolidine hydrochloride]",30.20 +/− 1.8%
4,"Fc1cccc(-c2ccccc2CO[C@H]2CCNC2)c1F.O=C(O)/C=C/C(=O)O [Example A-6, (S)-3-(2′,3′-Difluoro-biphenyl-2-ylmethoxy)-pyrrolidine fumarate]",66.20 +/− 7.8%

# Target: T2, human serotonin transporter (Homo sapiens, UniProt P31645)
# T2 construct: expressed in transfected cells; host or cells: HEK-293
# Experiment: hSERT receptor binding ([125I]-RTI-55 radioligand)
# Conditions: membranes of HEK-293 cells transfected with human serotonin transporter cDNA; 50 pM [125I]-RTI-55; IC50 converted by Cheng-Prusoff; read-out: SERT Ki
# How it was run: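 Ki values derive via Cheng-Prusoff from IC50s of displacement of 50 pM [125I]-RTI-55 binding to transfected HEK-293 membranes, 90 min at room temperature in pH 7.4 Krebs-HEPES buffer. Compounds spanned 10^−12 to 10^−5 M, in duplicate; nonspecific binding was set with 10 μM citalopram.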
# T2 sequence (P31645 whole entry): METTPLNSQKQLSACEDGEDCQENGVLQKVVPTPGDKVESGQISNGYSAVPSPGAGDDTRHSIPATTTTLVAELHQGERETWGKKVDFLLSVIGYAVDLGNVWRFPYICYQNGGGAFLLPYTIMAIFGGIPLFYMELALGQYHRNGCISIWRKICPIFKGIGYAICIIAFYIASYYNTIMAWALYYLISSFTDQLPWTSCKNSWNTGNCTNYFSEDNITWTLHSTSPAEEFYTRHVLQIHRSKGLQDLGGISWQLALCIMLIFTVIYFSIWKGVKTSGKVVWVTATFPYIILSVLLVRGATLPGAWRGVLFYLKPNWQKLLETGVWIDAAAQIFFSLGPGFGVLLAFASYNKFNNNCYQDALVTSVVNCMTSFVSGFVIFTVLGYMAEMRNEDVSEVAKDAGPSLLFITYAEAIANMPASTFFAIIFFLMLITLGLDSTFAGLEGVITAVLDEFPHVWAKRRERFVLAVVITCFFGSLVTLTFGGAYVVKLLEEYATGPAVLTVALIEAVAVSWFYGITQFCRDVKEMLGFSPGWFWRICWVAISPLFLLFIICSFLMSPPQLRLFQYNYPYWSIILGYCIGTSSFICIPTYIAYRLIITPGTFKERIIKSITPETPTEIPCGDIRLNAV
row,Compound,Ki
1,"Fc1cccc(-c2ccccc2CO[C@H]2CCNC2)c1F.O=C(O)/C=C/C(=O)O [Example A-6, (S)-3-(2′,3′-Difluoro-biphenyl-2-ylmethoxy)-pyrrolidine fumarate]",65.6 nM
2,"Fc1cc(F)cc(-c2ccccc2CO[C@H]2CCNC2)c1 [Example A-17, (S)-3-(3′,5′-Difluoro-biphenyl-2-ylmethoxy)-pyrrolidine hydrochloride]",15.1 nM
3,"FC(F)(F)c1cccc(-c2ccccc2CO[C@H]2CCNC2)c1 [Example A-18, (S)-3-(3′-Trifluoromethyl-biphenyl-2-ylmethoxy)-pyrrolidine hydrochloride]",13 nM
4,(S)-1-{3-[2-Pyrrolidin-3-yloxymethyl)-phenyl]-pyridin-2-yl}-piperazine [Example D-125],6930 nM

# The remaining lines, values ahead:
row,Ki,Compound
1,103 nM,"Fc1ccc(-c2ccccc2CO[C@H]2CCNC2)c(F)c1 [Example A-1, (S)-3-(2′,4′-Difluoro-biphenyl-2-ylmethoxy)-pyrrolidine fumarate]"
2,134 nM,"Fc1ccc(-c2ccc(F)cc2CO[C@H]2CCNC2)c(F)c1.O=C(O)/C=C/C(=O)O [Example A-3, (S)-3-(4,2′,4′-Trifluoro-biphenyl-2-ylmethoxy)-pyrrolidine fumarate]"
3,139 nM,"Cl.Fc1ccc(-c2cccc(F)c2F)c(CO[C@H]2CCNC2)c1 [Example A-4, (S)-3-(4,2′,3′-Trifluoro-biphenyl-2-ylmethoxy)-pyrrolidine hydrochloride]"
4,1120 nM,"N#Cc1cccc(-c2cc(F)ccc2F)c1CO[C@H]1CCNC1 [Example E-1, (S)-2′,5′-Difluoro-2-(pyrrolidin-3-yloxymethyl)-biphenyl-3-carbonitrile fumarate]"
5,3770 nM,"N#Cc1cccc(-c2ccc(F)cc2F)c1CO[C@H]1CCNC1 [Example E-2, (S)-2′,4′-Difluoro-2-(pyrrolidin-3-yloxymethyl)-biphenyl-3-carbonitrile fumarate]"
6,1570 nM,"N#Cc1cccc(-c2cccc(F)c2F)c1CO[C@H]1CCNC1 [Example E-3, (S)-2′,3′-Difluoro-2-(pyrrolidin-3-yloxymethyl)-biphenyl-3-carbonitrile fumarate]"

# Target: T3, human norepinephrine transporter (Homo sapiens, UniProt P23975)
# T3 construct: expressed in transfected cells; host or cells: HEK-293
# Experiment: hNET receptor binding ([125I]-RTI-55 radioligand)
# Conditions: membranes of HEK-293 cells transfected with human norepinephrine transporter cDNA; 50 pM [125I]-RTI-55; IC50 converted by Cheng-Prusoff; read-out: NET Ki
# How it was run: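 Membranes from HEK-293 cells expressing human NET were incubated 90 min at room temperature with 50 pM [125I]-RTI-55 and test compound (10^−5M to 10^−12M) in Krebs-HEPES, pH 7.4.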
# T3 sequence (P23975 whole entry): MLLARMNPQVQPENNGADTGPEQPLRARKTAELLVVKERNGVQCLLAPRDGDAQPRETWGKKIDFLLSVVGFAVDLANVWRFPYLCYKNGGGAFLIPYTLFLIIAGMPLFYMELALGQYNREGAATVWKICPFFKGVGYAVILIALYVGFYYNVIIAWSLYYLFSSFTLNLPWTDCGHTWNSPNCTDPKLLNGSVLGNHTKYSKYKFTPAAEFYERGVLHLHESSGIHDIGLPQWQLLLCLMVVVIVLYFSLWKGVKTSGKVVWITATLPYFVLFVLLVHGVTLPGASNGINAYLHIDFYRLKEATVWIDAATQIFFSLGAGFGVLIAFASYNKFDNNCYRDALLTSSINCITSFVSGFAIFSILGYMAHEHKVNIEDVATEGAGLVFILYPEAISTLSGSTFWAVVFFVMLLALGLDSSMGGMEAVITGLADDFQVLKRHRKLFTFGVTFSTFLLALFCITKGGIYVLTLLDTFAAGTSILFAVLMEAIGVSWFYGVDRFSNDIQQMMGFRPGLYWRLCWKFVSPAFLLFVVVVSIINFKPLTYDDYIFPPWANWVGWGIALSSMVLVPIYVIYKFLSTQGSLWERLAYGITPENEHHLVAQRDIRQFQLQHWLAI
row,Compound,Ki
1,"Fc1cccc(-c2ccccc2CO[C@H]2CCNC2)c1F.O=C(O)/C=C/C(=O)O [Example A-6, (S)-3-(2′,3′-Difluoro-biphenyl-2-ylmethoxy)-pyrrolidine fumarate]",12.9 nM
2,"Fc1cc(F)cc(-c2ccccc2CO[C@H]2CCNC2)c1 [Example A-17, (S)-3-(3′,5′-Difluoro-biphenyl-2-ylmethoxy)-pyrrolidine hydrochloride]",93.5 nM
3,"FC(F)(F)c1cccc(-c2ccccc2CO[C@H]2CCNC2)c1 [Example A-18, (S)-3-(3′-Trifluoromethyl-biphenyl-2-ylmethoxy)-pyrrolidine hydrochloride]",103 nM
4,(S)-1-{3-[2-Pyrrolidin-3-yloxymethyl)-phenyl]-pyridin-2-yl}-piperazine [Example D-125],≥ 10000 nM

# Second part, the compound after the results:
row,Ki,Compound
1,10.9 nM,"Fc1ccc(-c2ccccc2CO[C@H]2CCNC2)c(F)c1 [Example A-1, (S)-3-(2′,4′-Difluoro-biphenyl-2-ylmethoxy)-pyrrolidine fumarate]"
2,10.8 nM,"Fc1ccc(-c2ccc(F)cc2CO[C@H]2CCNC2)c(F)c1.O=C(O)/C=C/C(=O)O [Example A-3, (S)-3-(4,2′,4′-Trifluoro-biphenyl-2-ylmethoxy)-pyrrolidine fumarate]"
3,11.2 nM,"Cl.Fc1ccc(-c2cccc(F)c2F)c(CO[C@H]2CCNC2)c1 [Example A-4, (S)-3-(4,2′,3′-Trifluoro-biphenyl-2-ylmethoxy)-pyrrolidine hydrochloride]"
4,336 nM,"N#Cc1cccc(-c2cc(F)ccc2F)c1CO[C@H]1CCNC1 [Example E-1, (S)-2′,5′-Difluoro-2-(pyrrolidin-3-yloxymethyl)-biphenyl-3-carbonitrile fumarate]"
5,763 nM,"N#Cc1cccc(-c2ccc(F)cc2F)c1CO[C@H]1CCNC1 [Example E-2, (S)-2′,4′-Difluoro-2-(pyrrolidin-3-yloxymethyl)-biphenyl-3-carbonitrile fumarate]"
6,560 nM,"N#Cc1cccc(-c2cccc(F)c2F)c1CO[C@H]1CCNC1 [Example E-3, (S)-2′,3′-Difluoro-2-(pyrrolidin-3-yloxymethyl)-biphenyl-3-carbonitrile fumarate]"
